Counter-ions that a name gives are not always drawn.
Each molecule was assayed against T1, Aurora A proteins (Homo sapiens, UniProt O14965) (assay: Degradation of Aurora A protein in MM.1S cell lines (Western blot densitometry)). Details: MM1.S, 24 h, read-out: Aurora A degrading capacity (%).
T1 construct: endogenous in cells; host or cells: MM.1S
T1 sequence (O14965 1-403): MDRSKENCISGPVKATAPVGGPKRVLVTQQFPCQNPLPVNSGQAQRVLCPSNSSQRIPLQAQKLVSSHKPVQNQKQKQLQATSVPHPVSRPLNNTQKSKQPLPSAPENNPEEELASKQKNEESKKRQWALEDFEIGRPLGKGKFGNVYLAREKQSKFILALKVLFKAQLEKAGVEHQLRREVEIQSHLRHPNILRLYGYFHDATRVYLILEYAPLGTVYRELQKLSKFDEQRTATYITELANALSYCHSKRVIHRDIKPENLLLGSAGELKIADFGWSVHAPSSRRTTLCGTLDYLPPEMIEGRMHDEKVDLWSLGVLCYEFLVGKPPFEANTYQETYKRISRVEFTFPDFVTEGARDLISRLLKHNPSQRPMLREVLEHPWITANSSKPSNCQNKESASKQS
Format: cell-based
Protocol: Specifically, the MM.1S cells were cultured in RPMI-1640 medium containing 10% fetal bovine serum (FBS), 1% penicillin, and streptomycin (100 U/mL), transferred to a 6-well plate, and after 24 hours, the Aurora A degraders were diluted in the RPMI culture medium and cells were treated with 5 μM concentration thereof. After treatment, the cells were incubated in a CO2 incubator for 24 hours. […] After cell culture was completed according to the experimental conditions, the cells were collected and centrifuged at 1,800 rpm for 3 minutes. The cells in the precipitate were lysed with RIPA (25 mM Tris-HCl pH 7.6, 150 mM NaCl, 1% NP-40, 1% sodium deoxycholate, 0.1% SDS, 1× Protease Inhibitor Cocktail), 5× sample buffer was added, and then heated at 100° C. for 15 minutes. The prepared sample was electrophoresed with sodium dodecyl sulfate poly acrylamide gel electrophoresis (SDS-PAGE), and then the proteins in the gel were transferred to a PVDF membrane using Trans-Blot Turbo. The membrane was treated with a 5% bovine serum albumin (BSA) solution and blocked at room temperature for 2 hours, and then Aurora A and R-actin antibodies were diluted in the 5% BSA solution to react with the membrane at 4° C. overnight. After washed with PBST (0.5% Tween20) 5 times, horse radish peroxidase (HRP)-conjugated secondary antibodies were diluted in PBST to react at room temperature for 2 hours, and then washed again with a PBST solution 5 times. After enzyme-substrate reaction was carried out using a HRP substrate, a signal was measured with chemi-doc equipment, and the densitometry of a band corresponding to the Aurora A protein detected in the Preparation Example Compounds was quantitatively analyzed. The case when the degrading capacity of each Aurora A degrader was reduced by less than 40% is indicated as +, the case when the degrading capacity was reduced by 40% to 70% (exclusive of 70) is indicated as ++, the case when the degrading capacity was reduced by 70% or more is indicated as +++ in Tables 20 to 23 below.

`COC(=O)c1ccc(C#CCNC(=O)C2CCN(C(=O)c3ccc(Nc4ncc5c(n4)-c4ccc(Cl)cc4C(c4c(F)cccc4OC)=NC5)cc3OC)CC2)cc1C#CCN` [5-28″, methyl 2-(3-aminoprop-1-yn-1-yl)-4-(3-(1-(4-((9-chloro-7-(2-fluoro-6-methoxyphenyl)-5H-benzo[c]pyrimido[4,5-e]azepin-2-yl)amino)-2-methoxybenzoyl)piperidine-4-carboxamido)prop-1-yn-1-yl)benzoate trifluoroacetic acid] and `COC(=O)c1ccc(C#CCNC(=O)c2ccc(Nc3ncc4c(n3)-c3ccc(Cl)cc3C(c3c(F)cccc3OC)=NC4)cc2OC)cc1C#CCN` [5-116″, methyl 2-(3-aminoprop-1-yn-1-yl)-4-(3-(4-((9-chloro-7-(2-fluoro-6-methoxyphenyl)-5H-benzo[c]pyrimido[4,5-e]azepin-2-yl)amino)-2-methoxybenzamido)prop-1-yn-1-yl)benzoate trifluoroacetic acid] cannot be ordered by Aurora A degradation (%) at 5 µM: greater than 70% for the first, greater than 70% for the second.

`COC(=O)c1ccc(N2CCN(CC3CCN(C(=O)c4ccc(Nc5ncc6c(n5)-c5ccc(Cl)cc5C(c5c(F)cccc5OC)=NC6)cc4OC)CC3)CC2)cc1C#CCN` [5-29″, methyl 2-(3-aminoprop-1-yn-1-yl)-4-(4-((1-(4-((9-chloro-7-(2-fluoro-6-methoxyphenyl)-5H-benzo[c]pyrimido[4,5-e]azepin-2-yl)amino)-2-methoxybenzoyl)piperidin-4-yl)methyl)piperazin-1-yl)benzoate trifluoroacetic acid] and `COC(=O)c1ccc(N2CC3(CN(C(=O)c4ccc(Nc5ncc6c(n5)-c5ccc(Cl)cc5C(c5c(F)cccc5OC)=NC6)cc4OC)C3)C2)cc1C#CCN` [5-40″, methyl 2-(3-aminoprop-1-yn-1-yl)-4-(6-(4-((9-chloro-7-(2-fluoro-6-methoxyphenyl)-5H-benzo[c]pyrimido[4,5-e]azepin-2-yl)amino)-2-methoxybenzoyl)-2,6-diazaspiro[3.3]heptan-2-yl)benzoate trifluoroacetic acid] cannot be ordered by Aurora A degradation (%) at 5 µM: greater than 70% for the first, greater than 70% for the second.

Compared with `COC(=O)c1ccc(N2CCN(C(=O)CCNC(=O)c3ccc(Nc4ncc5c(n4)-c4ccc(Cl)cc4C(c4c(F)cccc4OC)=NC5)cc3OC)CC2)cc1C#CCN` [5-32″, methyl 2-(3-aminoprop-1-yn-1-yl)-4-(4-(3-(4-((9-chloro-7-(2-fluoro-6-methoxyphenyl)-5H-benzo[c]pyrimido[4,5-e]azepin-2-yl)amino)-2-methoxybenzamido)propanoyl)piperazin-1-yl)benzoate trifluoroacetic acid], `COC(=O)c1ccc(N(C)C(=O)CCCNC(=O)c2ccc(Nc3ncc4c(n3)-c3ccc(Cl)cc3C(c3c(F)cccc3OC)=NC4)cc2OC)cc1C#CCN` [5-150″, methyl 2-(3-aminoprop-1-yn-1-yl)-4-(4-(4-((9-chloro-7-(2-fluoro-6-methoxyphenyl)-5H-benzo[c]pyrimido[4,5-e]azepin-2-yl)amino)-2-methoxybenzamido)-N-methylbutanamido)benzoate trifluoroacetic acid] is lower in Aurora A degradation (%) at 5 µM: 40 to 70% for the first, less than 40% for the second.

`COC(=O)c1ccc(NC2CCC(NC(=O)c3ccc(Nc4ncc5c(n4)-c4ccc(Cl)cc4C(c4c(F)cccc4OC)=NC5)cc3OC)CC2)cc1C#CCN` (centres unmarked) [5-35″, methyl 2-(3-aminoprop-1-yn-1-yl)-4-((4-(4-((9-chloro-7-(2-fluoro-6-methoxyphenyl)-5H-benzo[c]pyrimido[4,5-e]azepin-2-yl)amino)-2-methoxybenzamido)cyclohexyl)amino)benzoate trifluoroacetic acid] and `COc1cc(Nc2ncc3c(n2)-c2ccc(Cl)cc2C(c2c(F)cccc2OC)=NC3)ccc1C(=O)NCCCCCC(=O)Nc1cccc(C#CCN)c1` [5-104″, N-(6-((3-(3-aminoprop-1-yn-1-yl)phenyl)amino)-6-oxohexyl)-4-((9-chloro-7-(2-fluoro-6-methoxyphenyl)-5H-benzo[c]pyrimido[4,5-e]azepin-2-yl)amino)-2-methoxybenzamide trifluoroacetic acid] cannot be ordered by Aurora A degradation (%) at 5 µM: greater than 70% for the first, greater than 70% for the second.

Molecule `COc1cc(Nc2ncc3c(n2)-c2ccc(Cl)cc2C(c2c(F)cccc2OC)=NC3)ccc1C(=O)NCCCC(=O)Nc1ccc(-c2cnc(C(F)(F)F)nc2)c(C#CCN)c1` [5-81″, N-(4-((3-(3-aminoprop-1-yn-1-yl)-4-(2-(trifluoromethyl)pyrimidin-5-yl)phenyl)amino)-4-oxobutyl)-4-((9-chloro-7-(2-fluoro-6-methoxyphenyl)-5H-benzo[c]pyrimido[4,5-e]azepin-2-yl)amino)-2-methoxybenzamide trifluoroacetic acid] has an Aurora A degradation (%) at 5 µM greater than 70%.

Same assay, conditions: MM1.S; MM.1S cells, 5 μM, 24 hours, Western blot; read-out: Aurora A degrading capacity (%)

In the case of `COC(=O)c1ccc(NC(=O)C2CCN(C(=O)c3ccc(Nc4ncc5c(n4)-c4ccc(Cl)cc4C(c4c(F)cccc4OC)=NC5)cc3OC)CC2)cc1C#CCN` [5-23″, methyl 2-(3-aminoprop-1-yn-1-yl)-4-(1-(4-((9-chloro-7-(2-fluoro-6-methoxyphenyl)-5H-benzo[c]pyrimido[4,5-e]azepin-2-yl)amino)-2-methoxybenzoyl)piperidine-4-carboxamido)benzoate hydrochloride], the Aurora A degradation (%) at 5 µM was less than 40%.

Same assay, conditions: MM.1S cells, 5 μM, 24 hours, Western blot; control group

In the case of `COc1cc(Nc2ncc3c(n2)-c2ccc(Cl)cc2C(c2c(F)cccc2OC)=NC3)ccc1C(=O)O` [Formula 2, reference compound], the “Aurora A degrading capacity” value was 0%.
